Results on one molecule are retold here after US8124135B2, “Compositions and methods for reduction of LDL oxidation” (VDF FutureCeuticals, Inc., priority 2005, dated 2012).

The experiment deals with Cu-induced LDL oxidation in human serum. As to the kind of experiment: Cu-induced LDL oxidation in human serum ex vivo (fluorescence). To be noted: after 2 hrs of serum exposure to copper ions.

Procedure: Total amounts of cholesterol, HDL, LDL, triglycerides were measured using Cholestech System. SPG in powder form was provided by VDF FutureCeuticals, Inc. and dissolved in water at various ad indicated concentrations. Copper chloride was from Sigma. Black transparent-bottom 96-well plates were from Nalgene Nunc International. Oxidation of LDL was measured using fluorescence methods as described elsewhere (supra). Cu-induced LDL oxidation was performed in PBS (100 ul/well) with 4 ul of human sera, 2 ul of copper chloride (concentration 4 mM) and 0.5 ul of H2O2 (concentration 88.2 nM) resulting in 8-uM concentration of copper ions and 44 μM of hydrogen peroxide, respectively. Formation of Cu-induced oxLDL was measured directly in human serum using a 96-well plate set up and Gemini Fluorescent plate reader (Molecular Devices). The fluorescence signal at 360/430 and 360/470 was measured at time 0, 2 and 16 hours. oxLDL fluorescence values compared to concentration 0 on each graph show how much fluorescent signal for oxidized LDL increased between time 0 and 2 or 16 hrs, respectively, while the value at concentration 0 represents the max increase of oxLDL generation under the experimental conditions.

Take `O=C1O[C@H]([C@@H](O)CO)C(O)=C1O` [ascorbic acid]: the “IC50 of Cu-induced LDL oxidation in serum” value was determined as 69 µg/mL.
